Article PMC9090415, “Discovery of small molecule inhibitors of Plasmodium falciparum apicoplast DNA polymerase” (Journal of Enzyme Inhibition and Medicinal Chemistry, 2022)

Molecular target: P. falciparum apicoplast DNA polymerase (Pf-apPOL) (Plasmodium falciparum, UniProt Q8ILY1)
Experiment: Fluorescence-based high-throughput DNA polymerase assay (molecular beacon), primary screen and dose-response;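 for % inhibition ApPOL 90': test concentration in µM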;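 for % inhibition apPOL 180': test concentration in µM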
Assay type: biochemical
Procedure, shortened: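 Single-point screening used 10 µM compound with 20 nM polymerase, 20 nM hairpin substrate and 6 µM dNTPs for 90 min at 25 °C. Confirmatory titrations (2.5–80 µM) followed fluorescence at three times, and IC50 was derived from a fit including a cooperativity term n.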

[1] = 'DNA Pol'; screening value, unit not given; 90 min, 10 µM
[2] = primary screen hit value, DNA Pol (186 hits); 90 min, 10 µM
[3] = supplemental file 2, sheet IC50 nontoxic compounds; Pf-apPOL

Sequence of P. falciparum apicoplast DNA polymerase (Pf-apPOL) (Q8ILY1 entry or part of it): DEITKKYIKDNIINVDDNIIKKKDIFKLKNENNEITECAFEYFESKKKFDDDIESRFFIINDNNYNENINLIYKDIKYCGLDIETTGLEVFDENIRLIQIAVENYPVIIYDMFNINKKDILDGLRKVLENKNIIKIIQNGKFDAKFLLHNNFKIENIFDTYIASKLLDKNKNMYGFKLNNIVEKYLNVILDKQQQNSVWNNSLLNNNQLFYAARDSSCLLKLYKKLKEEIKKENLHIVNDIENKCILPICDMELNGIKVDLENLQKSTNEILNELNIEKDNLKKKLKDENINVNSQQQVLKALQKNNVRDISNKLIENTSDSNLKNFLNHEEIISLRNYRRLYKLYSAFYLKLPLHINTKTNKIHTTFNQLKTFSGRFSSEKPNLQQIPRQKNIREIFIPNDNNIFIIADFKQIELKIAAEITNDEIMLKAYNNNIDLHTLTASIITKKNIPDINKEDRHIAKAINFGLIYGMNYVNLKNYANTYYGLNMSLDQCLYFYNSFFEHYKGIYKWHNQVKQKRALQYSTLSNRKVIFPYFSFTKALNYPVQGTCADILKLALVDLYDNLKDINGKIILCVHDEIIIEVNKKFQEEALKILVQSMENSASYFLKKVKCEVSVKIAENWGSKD

## O=C(O)CC1SC(c2ccc3c(c2)OCO3)=NC1=O (stereo not drawn) [Molecule 69, OC(=O)CC1SC(=NC1=O)c1ccc2c(c1)OCO2]
[1]
  DNA Pol: 73
DRC-1; 10'; concentration 2.5
  % inhibition Apo pol 10': 9.093%
DRC-1; 10'; concentration 5
  % inhibition Apo pol 10': 10.6697%
DRC-1; 10'; concentration 10
  % inhibition Apo pol 10': 24.5481%
DRC-1; 10'; concentration 20
  % inhibition Apo pol 10': 37.0336%
DRC-1; 10'; concentration 40
  % inhibition Apo pol 10': 59.8933%
DRC-1; 10'; concentration 80
  % inhibition Apo pol 10': 73.2432%
DRC-1; 90'; concentration 2.5
  % inhibition Apol 90': 0.8612%
DRC-1; 90'; concentration 5
  % inhibition Apol 90': 2.259%
DRC-1; 90'; concentration 10
  % inhibition Apol 90': 10.3106%
DRC-1; 90'; concentration 20
  % inhibition Apol 90': 18.6533%
DRC-1; 90'; concentration 40
  % inhibition Apol 90': 43.3337%
DRC-1; 90'; concentration 80
  % inhibition Apol 90': 58.9692%
DRC-1; 180'; concentration 2.5
  % inhibition apPOL 180': -4.62%
DRC-1; 180'; concentration 5
  % inhibition apPOL 180': -4.006%
DRC-1; 180'; concentration 10
  % inhibition apPOL 180': 2.363%
DRC-1; 180'; concentration 20
  % inhibition apPOL 180': 9.6301%
DRC-1; 180'; concentration 40
  % inhibition apPOL 180': 35.5256%
DRC-1; 180'; concentration 80
  % inhibition apPOL 180': 52.4762%
DRC-2, 5', concentration 2.5
  % inhibition Apo pol 5': 14%
DRC-2, 5', concentration 5
  % inhibition Apo pol 5': 9%
DRC-2, 5', concentration 10
  % inhibition Apo pol 5': 20%
DRC-2, 5', concentration 20
  % inhibition Apo pol 5': 29%
DRC-2, 5', concentration 40
  % inhibition Apo pol 5': 41%
DRC-2, 5', concentration 80
  % inhibition Apo pol 5': 49%
DRC-2, 40', concentration 2.5
  % inhibition Apol 40': 9%
DRC-2, 40', concentration 5
  % inhibition Apol 40': 7%
DRC-2, 40', concentration 10
  % inhibition Apol 40': 16%
DRC-2, 40', concentration 20
  % inhibition Apol 40': 23%
DRC-2, 40', concentration 40
  % inhibition Apol 40': 37%
DRC-2, 40', concentration 80
  % inhibition Apol 40': 51%
DRC-2, 90', concentration 2.5
  % inhibition ApPOL 90': 5.65%
DRC-2, 90', concentration 5
  % inhibition ApPOL 90': 4%
DRC-2, 90', concentration 10
  % inhibition ApPOL 90': 10%
DRC-2, 90', concentration 20
  % inhibition ApPOL 90': 16%
DRC-2, 90', concentration 40
  % inhibition ApPOL 90': 33%
DRC-2, 90', concentration 80
  % inhibition ApPOL 90': 50%
DRC-2, 180', concentration 2.5
  % inhibition apPOL 180': -0.895%
DRC-2, 180', concentration 5
  % inhibition apPOL 180': -1.56%
DRC-2, 180', concentration 10
  % inhibition apPOL 180': 3%
DRC-2, 180', concentration 20
  % inhibition apPOL 180': 7%
DRC-2, 180', concentration 40
  % inhibition apPOL 180': 23%
DRC-2, 180', concentration 80
  % inhibition apPOL 180': 43%
Conc 2.5 (unit not given); 40'; DRC-2
  % inhibition Apol 40': 9%
Conc 5 (unit not given); 5'; DRC-2
  % inhibition Apo pol 5': 9%
Conc 5 (unit not given); 40'; DRC-2
  % inhibition Apol 40': 7%
Conc 10 (unit not given); 40'; DRC-2
  % inhibition Apol 40': 16%
Conc 20 (unit not given); 40'; DRC-2
  % inhibition Apol 40': 23%
Conc 20 (unit not given); 90'; DRC-2
  % inhibition ApPOL 90': 16%
Conc 20 (unit not given); 180'; DRC-2
  % inhibition apPOL 180': 7%
Conc 40 (unit not given); 180'; DRC-2
  % inhibition apPOL 180': 23%
[2]
  DNA Pol: 73

## O=C(Cn1ccc2c(=O)[nH]ccc21)Nc1ccc(Cl)cc1 [Molecule 36]
[3]
  IC50: 12.8 µM

## O=c1nc(/C=C/c2ccc(Br)cc2)oc2ccccc12 [KU0052629]
'DNA Pol' of the 186 hits list (screen value); 90 min, 10 µM
  DNA Pol: 39
DRC-1; 10'; conc 2.5
  % inhibition Apo pol 10': -0.8795%
DRC-1; 10'; conc 5
  % inhibition Apo pol 10': 1.877%
DRC-1; 10'; conc 10
  % inhibition Apo pol 10': 5.765%
DRC-1; 10'; conc 20
  % inhibition Apo pol 10': 17.2321%
DRC-1; 10'; conc 40
  % inhibition Apo pol 10': 88.0772%
DRC-1; 10'; conc 80
  % inhibition Apo pol 10': 96.3156%
DRC-1; 90'; conc 2.5
  % inhibition Apol 90': -3.77%
DRC-1; 90'; conc 5
  % inhibition Apol 90': -1.711%
DRC-1; 90'; conc 10
  % inhibition Apol 90': 2.797%
DRC-1; 90'; conc 20
  % inhibition Apol 90': 11.2319%
DRC-1; 90'; conc 40
  % inhibition Apol 90': 85.0713%
DRC-1; 90'; conc 80
  % inhibition Apol 90': 92.172%
DRC-1; 180'; conc 2.5
  % inhibition apPOL 180': -7.96%
DRC-1; 180'; conc 5
  % inhibition apPOL 180': -5.094%
DRC-1; 180'; conc 10
  % inhibition apPOL 180': -1.853%
DRC-1; 180'; conc 20
  % inhibition apPOL 180': 4.7876%
DRC-1; 180'; conc 40
  % inhibition apPOL 180': 80.0065%
DRC-1; 180'; conc 80
  % inhibition apPOL 180': 94.1472%
DRC-2; 5'; conc 2.5
  % inhibition Apo pol 5': 6%
DRC-2; 5'; conc 5
  % inhibition Apo pol 5': -1.24%
DRC-2; 5'; conc 10
  % inhibition Apo pol 5': 6%
DRC-2; 5'; conc 20
  % inhibition Apo pol 5': 35%
DRC-2; 5'; conc 40
  % inhibition Apo pol 5': 60%
DRC-2; 5'; conc 80
  % inhibition Apo pol 5': 61%
DRC-2; 5'; concentration 2.5
  % inhibition Apo pol 5': 6%
DRC-2; 5'; concentration 10
  % inhibition Apo pol 5': 6%
DRC-2; 40'; conc 2.5
  % inhibition Apol 40': 8%
DRC-2; 40'; conc 5
  % inhibition Apol 40': -2.13%
DRC-2; 40'; conc 10
  % inhibition Apol 40': 5.6%
DRC-2; 40'; conc 20
  % inhibition Apol 40': 48%
DRC-2; 40'; conc 40
  % inhibition Apol 40': 77%
DRC-2; 40'; conc 80
  % inhibition Apol 40': 75%
DRC-2; 40'; concentration 2.5
  % inhibition Apol 40': 8%
DRC-2; 90'; conc 2.5
  % inhibition ApPOL 90': 8%
DRC-2; 90'; conc 5
  % inhibition ApPOL 90': -2%
DRC-2; 90'; conc 10
  % inhibition ApPOL 90': 5%
DRC-2; 90'; conc 20
  % inhibition ApPOL 90': 45%
DRC-2; 90'; conc 40
  % inhibition ApPOL 90': 79%
DRC-2; 90'; conc 80
  % inhibition ApPOL 90': 79%
DRC-2; 90'; concentration 2.5
  % inhibition ApPOL 90': 8%
DRC-2; 90'; concentration 40
  % inhibition ApPOL 90': 79%
DRC-2; 90'; concentration 80
  % inhibition ApPOL 90': 79%
DRC-2; 180'; conc 2.5
  % inhibition apPOL 180': 6%
DRC-2; 180'; conc 5
  % inhibition apPOL 180': -4%
DRC-2; 180'; conc 10
  % inhibition apPOL 180': 2.72%
DRC-2; 180'; conc 20
  % inhibition apPOL 180': 37%
DRC-2; 180'; conc 40
  % inhibition apPOL 180': 79%
DRC-2; 180'; conc 80
  % inhibition apPOL 180': 79%
DRC-2; 180'; concentration 2.5
  % inhibition apPOL 180': 6%
DRC-2; 180'; concentration 40
  % inhibition apPOL 180': 79%
DRC-2; 180'; concentration 80
  % inhibition apPOL 180': 79%
Primary screen value, "DNA Pol"; 90 min, 10 µM
  DNA Pol: 39

## Cc1cccc2c(C(=O)NC(C)C)cc(N(C)C)nc12 [Molecule 47]
[3]
  IC50: 15.9 µM

## CCSc1nnc(NC(=O)Cc2csc(NC(=O)c3cnccn3)n2)s1 [Molecule 79, CCSc1nnc(s1)NC(=O)Cc1csc(n1)NC(=O)c1cnccn1]
[1]
  DNA Pol: 44
DRC-1; 10'; concentration 2.5
  % inhibition Apo pol 10': -4.905%
DRC-1; 10'; concentration 5
  % inhibition Apo pol 10': -2.236%
DRC-1; 10'; concentration 10
  % inhibition Apo pol 10': 11.7558%
DRC-1; 10'; concentration 20
  % inhibition Apo pol 10': 21.8429%
DRC-1; 10'; concentration 40
  % inhibition Apo pol 10': 42.6087%
DRC-1; 10'; concentration 80
  % inhibition Apo pol 10': 77.5256%
DRC-1; 90'; concentration 2.5
  % inhibition Apol 90': -9.3965%
DRC-1; 90'; concentration 5
  % inhibition Apol 90': -9.701%
DRC-1; 90'; concentration 10
  % inhibition Apol 90': -1.729%
DRC-1; 90'; concentration 20
  % inhibition Apol 90': 6.401%
DRC-1; 90'; concentration 40
  % inhibition Apol 90': 23.3518%
DRC-1; 90'; concentration 80
  % inhibition Apol 90': 61.199%
DRC-1; 180'; concentration 2.5
  % inhibition apPOL 180': -15.2579%
DRC-1; 180'; concentration 5
  % inhibition apPOL 180': -16.9778%
DRC-1; 180'; concentration 10
  % inhibition apPOL 180': -10.4775%
DRC-1; 180'; concentration 20
  % inhibition apPOL 180': -5.476%
DRC-1; 180'; concentration 40
  % inhibition apPOL 180': 8.736%
DRC-1; 180'; concentration 80
  % inhibition apPOL 180': 42.542%
DRC-2, 5', concentration 2.5
  % inhibition Apo pol 5': 1.36%
DRC-2, 5', concentration 5
  % inhibition Apo pol 5': 13%
DRC-2, 5', concentration 10
  % inhibition Apo pol 5': 30%
DRC-2, 5', concentration 20
  % inhibition Apo pol 5': 43%
DRC-2, 5', concentration 40
  % inhibition Apo pol 5': 55%
DRC-2, 5', concentration 80
  % inhibition Apo pol 5': 62%
DRC-2, 40', concentration 2.5
  % inhibition Apol 40': -2.42%
DRC-2, 40', concentration 5
  % inhibition Apol 40': 7%
DRC-2, 40', concentration 10
  % inhibition Apol 40': 25%
DRC-2, 40', concentration 20
  % inhibition Apol 40': 40%
DRC-2, 40', concentration 40
  % inhibition Apol 40': 62%
DRC-2, 40', concentration 80
  % inhibition Apol 40': 76%
DRC-2, 90', concentration 2.5
  % inhibition ApPOL 90': -4.46%
DRC-2, 90', concentration 5
  % inhibition ApPOL 90': 5%
DRC-2, 90', concentration 10
  % inhibition ApPOL 90': 22%
DRC-2, 90', concentration 20
  % inhibition ApPOL 90': 35%
DRC-2, 90', concentration 40
  % inhibition ApPOL 90': 62%
DRC-2, 90', concentration 80
  % inhibition ApPOL 90': 79%
DRC-2, 180', concentration 2.5
  % inhibition apPOL 180': -6%
DRC-2, 180', concentration 5
  % inhibition apPOL 180': 1.68%
DRC-2, 180', concentration 10
  % inhibition apPOL 180': 14%
DRC-2, 180', concentration 20
  % inhibition apPOL 180': 26%
DRC-2, 180', concentration 40
  % inhibition apPOL 180': 59%
DRC-2, 180', concentration 80
  % inhibition apPOL 180': 81%
Conc 40 (unit not given); 40'; DRC-2
  % inhibition Apol 40': 62%
Conc 40 (unit not given); 90'; DRC-2
  % inhibition ApPOL 90': 62%
Conc 80 (unit not given); 5'; DRC-2
  % inhibition Apo pol 5': 62%
[2]
  DNA Pol: 44

## CCOc1ccc(/C=C2\N=C(c3cc([N+](=O)[O-])cc([N+](=O)[O-])c3)OC2=O)cc1 [Molecule 97]
[3]
  IC50: 4.47 µM

## COc1ccc(C(=O)N2CCc3c(nc4cc(-c5ccccc5Cl)[nH]n4c3=O)C2)cn1 [Molecule 26]
[3]
  IC50: 9.65 µM
